Measured values from BindingDB's records for doi:10.1124/jpet.103.049395 (Lcg Bioscience, 2003).
Where a SMILES comes first, the peptide text is derived from it. Bridges are numbered along the chain shown (N, C = ends). [ ]: non-standard residue; d: D form. Orn = NCCC[C@H](N)C(=O)O; Mpa = O=C(O)CCS

Key:
Oxytocin receptor [1] = target: T1, Oxytocin receptor (Homo sapiens, UniProt P30559)
T1 sequence (P30559 whole entry): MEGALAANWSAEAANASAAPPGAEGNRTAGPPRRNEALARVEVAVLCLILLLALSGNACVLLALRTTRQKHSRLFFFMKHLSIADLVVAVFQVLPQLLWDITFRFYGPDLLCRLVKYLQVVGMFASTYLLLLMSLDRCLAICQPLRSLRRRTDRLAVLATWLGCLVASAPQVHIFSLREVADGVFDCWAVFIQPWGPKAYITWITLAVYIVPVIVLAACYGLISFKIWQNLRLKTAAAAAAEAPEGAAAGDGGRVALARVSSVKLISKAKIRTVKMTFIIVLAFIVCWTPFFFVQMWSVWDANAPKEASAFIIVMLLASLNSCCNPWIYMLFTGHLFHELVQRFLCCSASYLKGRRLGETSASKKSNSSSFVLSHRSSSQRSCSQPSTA

Oxytocin receptor [2] = target: T2, Oxytocin receptor (Rattus norvegicus, UniProt P70536)
T2 sequence (P70536 whole entry): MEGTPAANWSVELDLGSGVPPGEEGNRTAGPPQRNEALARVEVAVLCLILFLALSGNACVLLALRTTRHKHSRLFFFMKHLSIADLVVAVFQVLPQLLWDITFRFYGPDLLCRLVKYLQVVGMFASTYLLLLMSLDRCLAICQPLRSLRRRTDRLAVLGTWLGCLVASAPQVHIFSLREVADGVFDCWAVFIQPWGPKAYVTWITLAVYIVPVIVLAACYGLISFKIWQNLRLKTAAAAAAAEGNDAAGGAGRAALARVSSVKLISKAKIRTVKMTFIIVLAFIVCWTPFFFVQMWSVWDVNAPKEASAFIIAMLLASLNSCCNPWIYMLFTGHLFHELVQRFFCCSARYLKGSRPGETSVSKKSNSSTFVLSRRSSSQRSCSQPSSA

Vasopressin V1a receptor = Vasopressin V1a receptor (Homo sapiens, UniProt P37288)
Vasopressin V1a receptor, sequence (P37288 whole entry): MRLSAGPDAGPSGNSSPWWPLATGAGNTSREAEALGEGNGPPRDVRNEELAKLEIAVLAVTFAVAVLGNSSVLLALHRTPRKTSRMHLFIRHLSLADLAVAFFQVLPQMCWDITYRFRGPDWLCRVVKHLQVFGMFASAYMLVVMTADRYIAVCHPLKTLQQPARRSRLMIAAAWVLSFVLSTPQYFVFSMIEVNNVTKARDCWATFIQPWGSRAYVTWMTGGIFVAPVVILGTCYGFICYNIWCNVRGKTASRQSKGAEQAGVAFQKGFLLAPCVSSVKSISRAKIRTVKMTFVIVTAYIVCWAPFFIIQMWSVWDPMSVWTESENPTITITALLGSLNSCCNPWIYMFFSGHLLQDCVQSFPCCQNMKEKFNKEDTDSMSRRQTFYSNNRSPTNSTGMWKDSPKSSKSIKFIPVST

Vasopressin V1b receptor = target: T3, Vasopressin V1b receptor (Homo sapiens, UniProt P47901)
T3 sequence (P47901 whole entry): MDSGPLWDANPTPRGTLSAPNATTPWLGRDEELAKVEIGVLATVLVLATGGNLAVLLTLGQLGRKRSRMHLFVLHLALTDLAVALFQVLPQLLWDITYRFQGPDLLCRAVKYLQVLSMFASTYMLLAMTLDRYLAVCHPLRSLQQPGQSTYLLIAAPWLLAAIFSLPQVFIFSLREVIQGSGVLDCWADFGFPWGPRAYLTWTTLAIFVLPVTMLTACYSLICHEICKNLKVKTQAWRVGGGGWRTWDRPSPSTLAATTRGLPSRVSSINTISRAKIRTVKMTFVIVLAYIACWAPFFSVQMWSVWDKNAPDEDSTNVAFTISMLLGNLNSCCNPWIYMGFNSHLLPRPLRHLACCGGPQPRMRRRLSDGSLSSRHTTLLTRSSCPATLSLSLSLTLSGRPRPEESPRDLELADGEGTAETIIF

Vasopressin V2 receptor = Vasopressin V2 receptor (Homo sapiens, UniProt P30518)
Vasopressin V2 receptor, sequence (P30518 whole entry): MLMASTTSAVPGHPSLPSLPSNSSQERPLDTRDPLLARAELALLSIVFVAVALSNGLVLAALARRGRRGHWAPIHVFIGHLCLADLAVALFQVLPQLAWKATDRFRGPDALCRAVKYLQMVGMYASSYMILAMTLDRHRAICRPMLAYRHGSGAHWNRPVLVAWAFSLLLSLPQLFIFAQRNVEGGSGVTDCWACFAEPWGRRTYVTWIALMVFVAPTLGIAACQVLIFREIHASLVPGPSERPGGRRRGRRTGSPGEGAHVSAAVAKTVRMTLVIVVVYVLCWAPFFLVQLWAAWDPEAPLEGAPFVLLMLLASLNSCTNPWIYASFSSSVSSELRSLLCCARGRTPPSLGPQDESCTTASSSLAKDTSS

Compound | Ki (Oxytocin receptor [1]) | Ki (Oxytocin receptor [2]) | Ki (Vasopressin V1a receptor) | Ki (Vasopressin V1b receptor) | Ki (Vasopressin V2 receptor)
CO/N=C1/C[C@@H](C(=O)NC[C@@H](O)c2ccccc2)N(C(=O)c2ccc(-c3ccccc3C)cc2)C1 [(2S,4Z)-N-[(2S)-2-hydroxy-2-phenylethyl]-4-(methoxyimino)-1-[(2'-methyl[1,1'-biphenyl]-4-yl)carbonyl]-2-pyrrolidinecarboxamide] | 17 nM | 135 nM | 170 nM | > 10000 nM | > 10000 nM
CCOc1ccc(C[C@H]2NC(=O)CCSSC[C@@H](C(=O)N3CCC[C@H]3C(=O)N[C@@H](CCCN)C(=O)NCC(N)=O)NC(=O)[C@H](CC(N)=O)NC(=O)[C@H]([C@@H](C)O)NC(=O)[C@H]([C@@H](C)CC)NC2=O)cc1 [CAS_90779-69-4] ([Mpa][dY](Et)ITNCP[Orn]G-NH2; disulfide 1-6) | 81 nM |  | 3.5 nM | 657 nM | 954 nM
